Measurements from patent publication US20230235378A1, “LZHEIMER'S DISEASE-SPECIFIC ALTERATIONS OF PROTEIN KINASE C EPSILON (PKC-EPSILON PROTEIN LEVELS” (WEST VIRGINIA UNIVERSITY BOARD OF GOVERNORS ON BEHALF OF …, priority 2010, published 2023).

Experiments:
PKCε = molecular target: T1, PKCε (Homo sapiens, UniProt Q02156); assay: Protein kinase C assay with recombinant PKC epsilon isoform ([γ32P]ATP, histones); assay type: biochemical; settings: lowest concentration tested (10 nM)
T1 construct: purchased Calbiochem (San Diego, Calif.)
T1 sequence (Q02156 1-737): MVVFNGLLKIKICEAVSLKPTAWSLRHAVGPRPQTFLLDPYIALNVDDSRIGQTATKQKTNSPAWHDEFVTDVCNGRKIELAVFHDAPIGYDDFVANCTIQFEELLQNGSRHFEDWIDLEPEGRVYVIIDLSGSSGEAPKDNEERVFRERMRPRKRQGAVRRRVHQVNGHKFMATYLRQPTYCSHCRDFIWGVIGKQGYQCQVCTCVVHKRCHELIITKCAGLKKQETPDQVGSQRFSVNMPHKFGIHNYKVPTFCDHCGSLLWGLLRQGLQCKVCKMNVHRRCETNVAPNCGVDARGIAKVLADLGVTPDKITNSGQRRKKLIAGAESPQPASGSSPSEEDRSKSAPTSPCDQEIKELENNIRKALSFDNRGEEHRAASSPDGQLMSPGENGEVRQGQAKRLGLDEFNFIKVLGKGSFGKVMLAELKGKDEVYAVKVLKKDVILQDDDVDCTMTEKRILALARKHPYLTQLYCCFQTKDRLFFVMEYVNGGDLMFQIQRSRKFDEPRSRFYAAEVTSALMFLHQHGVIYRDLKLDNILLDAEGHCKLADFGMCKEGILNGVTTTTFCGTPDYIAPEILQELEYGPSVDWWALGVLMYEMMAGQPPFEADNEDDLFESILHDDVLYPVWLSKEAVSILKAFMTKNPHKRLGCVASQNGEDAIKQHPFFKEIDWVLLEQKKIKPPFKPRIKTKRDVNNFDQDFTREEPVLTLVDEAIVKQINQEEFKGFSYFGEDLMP
Method: Protein Kinase C Assay. Recombinant PKC (1 ng of alpha or epsilon isoform) was mixed with the BR-101 (DCP-LA) in the presence of 10 micromolar histones, 5 mM CaCl2, 1.2 μg/μl phosphatidyl-L-serine, 0.18 μg/μl 1,2-dioctanoyl-sn-glycerol (DAG), 10 mM MgCl2, 20 mM HEPES (pH 7.4), 0.8 mM EDTA, 4 mM EGTA, 4% glycerol, 8 μg/ml aprotinin, 8 μg/ml leupeptin, and 2 mM benzamidine. 0.5 micro Ci [γ32P]ATP was added. The incubation mixture was incubated for 15 min at 37 degrees in a total volume of 10 microliters. The reaction was stopped by spotting the reaction mixtures on 1×2 cm strips of cellulose phosphate paper (Whatman P81) and immediately washing twice for 1 hr in 0.5% H3PO4. The cellulose phosphate strips were counted in a scintillation counter. In some experiments, phosphatidylserine, diacylglycerol, and/or calcium were removed.

PKC = assay: Sustained PKC activation in primary neurons; assay type: cell-based, rat; settings: sustained activation only observed in primary neurons
Method: Cell Culture. Rat hippocampal H19-7/IGF-IR cells (ATCC, Manassas, Va.) were plated onto poly-L-lysine coated plates and grown at 35° C. in DMEM/10% FCS for several days until about 50% coverage was obtained. The cells were then induced to differentiate into a neuronal phenotype by replacing the medium with 5 ml N2 medium containing 10 ng/ml basic fibroblast growth factor at 39° C. and grown in T-75 flasks at 37° C. Human SH-SY5Y neuroblastoma cells (ATCC) were cultured in 45% F 12K/45% MEM/10% FCS. Mouse N2A neuroblastoma cells were cultured in DMEM/10% FCS without glutamine. Rat hippocampal neurons from 18-day-old embryonic
Sprague Dawley rat brains were plated on 12- or 96-well plates coated with poly-D-lysine (Sigma-Aldrich, St. Louis, Mo.) in B-27 neurobasal medium containing 0.5 mM glutamine and 25 μM glutamate (Invitrogen, Carlsbad, Calif.) and cultured for three days in the medium without glutamate. […]
Protein Kinase C Assay. […] 0.5 μCi [γ-32P]ATP was added and 32P-phosphoprotein formation was measured by adsorption onto phosphocellulose as described previously. […] For measurements of activation by BR-101 (DCP-LA) and similar compounds, PKC activity was measured in the absence of diacylglycerol and phosphatidylserine, as described by Kanno et al., and PKC δ, ε, η, and were measured in the absence of added EGTA and CaCl2, as described by Kanno et al., J. Lipid Res. 2006; 47: 1146-50. […]

TACE = TACE assay in cell homogenates of neuronal cells; assay type: cell-based; settings: human SH-SY5Y, N2a mouse neuroblastoma cells, primary neurons from rat hippocampus
Method: TACE Assay. TACE was measured by incubating 5 μl cell homogenate, 3 μl buffer (50 mM Tris-HCl 7.4 plus 25 mM NaCl plus 4% glycerol), and 1 μl of 100 μM TACE substrate IV (Aβz-LAQAVRSSSR-DPa) (Calbiochem) for 20 min at 37° in 1.5-ml polypropylene centrifuge tubes (Jin et al., Anal. Biochem. 2002; 302: 269-75). The reaction was stopped by cooling to 4° C. The samples were diluted to 1 ml and the fluorescence was rapidly measured (ex=320 nm, em=420 nm) in a Spex Fluorolog 2 spectrofluorometer.
Buxbaum et al., J. Biol. Chem. 1998; 273: 27765-67; Etcheberrigaray et al., Proc. Natl. Acad. Sci. USA. 2006: 103:8215-20. However, many of these earlier studies were carried out in fibroblasts and other non-neuronal cell types, which appear to respond differently to PKC activators than neurons.

Structure (SMILES): CCCCCC1CC1CC1CC1CCCCCCCC(=O)O (stereo not drawn) [BR-101, 8-[2-(2-pentyl-cyclopropylmethyl)-cyclopropyl]-octanoic acid]
- activation of PKCε (PKCε): 2.75 fold
- duration of PKC elevation (PKC): remained elevated for at least four hours
- change in TACE activity (TACE): only produced small increases
